From ChEMBL document CHEMBL4414576, “Recent advancements in mechanistic studies and structure activity relationship of FoF1 ATP synthase inhibitor as antimicrobial agent” (Eur J Med Chem, 2019)

System: Mycobacterium tuberculosis variant bovis
Experiment: Antimicrobial activity against Mycobacterium bovis after 1 to 5 days by two-fold dilution
Format: functional, organism-based

FC(F)(F)Oc1cccc(CNCCNC2C3CC4CC(C3)C2C4)c1 (stereo unspecified)
IC50: 1250 nM
